Laboratory results reported in publication PMC9603476, “Desaturation of the Sphingofungin Polyketide Tail Results in Increased Serine Palmitoyltransferase Inhibition” (Microbiology Spectrum, 2022).

Biological target: T1, SPT (serine palmitoyltransferase) (Sphingomonas paucimobilis, UniProt Q93UV0)
T1 construct: soluble homodimer
Test: HPLC-HRMS of 3-ketodihydrosphingosine; coupled PPi assay
Format: biochemical
Details: pH 7.5, 37°C

T1 sequence (Q93UV0 whole entry): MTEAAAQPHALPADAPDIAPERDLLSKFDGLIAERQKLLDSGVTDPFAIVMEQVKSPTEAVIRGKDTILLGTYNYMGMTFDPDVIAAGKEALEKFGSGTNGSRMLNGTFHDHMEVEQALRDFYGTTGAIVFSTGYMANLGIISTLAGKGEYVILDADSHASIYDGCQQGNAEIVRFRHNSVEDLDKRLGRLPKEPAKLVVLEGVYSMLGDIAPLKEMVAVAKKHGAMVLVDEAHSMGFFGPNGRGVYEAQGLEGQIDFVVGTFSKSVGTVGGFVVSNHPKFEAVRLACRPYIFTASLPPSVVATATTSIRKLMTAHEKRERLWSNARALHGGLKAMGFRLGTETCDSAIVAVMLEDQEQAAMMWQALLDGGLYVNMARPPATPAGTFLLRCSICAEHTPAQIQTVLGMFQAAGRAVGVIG

Row | Compound | HPLC-HRMS of 3-ketodihydrosphingosine; coupled PPi assay (5 mM serine, palmitoyl-CoA regenerated by FadD) | HPLC-HRMS of 3-ketodihydrosphingosine; coupled PPi assay (with palmitoyl-CoA regenerated by FadD, serine concentration varied)
1 | CCCCCCCCCCCCCCCC(=O)SCCNC(=O)CCNC(=O)[C@H](O)C(C)(C)COP(=O)(O)OP(=O)(O)OC[C@H]1O[C@@H](n2cnc3c(N)ncnc32)[C@H](O)[C@@H]1OP(=O)(O)O [palmitoyl-CoA] | we verified the production of 3-ketodihydrosphingosine by our SPT reaction | 
2 | N[C@@H](CO)C(=O)O [serine] |  | we verified the production of 3-ketodihydrosphingosine by our SPT reaction
